Test results taken from US8415469B2, “Compounds and methods for kinase modulation, and indications therefor” (Plexxikon Inc., priority 2005, dated 2013).

Columns and labels:
Format in all cases: biochemical
Ret = biological target: T1, Ret (Homo sapiens, UniProt P07949); experiment: AlphaScreen kinase assay, Ret; conditions: read-out: IC50, activity toward kinase Ret
T1 construct: P1378.pET-SF BI-PTP RET H661-R1012 HIS; made in house
T1 sequence (P07949 with tags, fused parts or gaps): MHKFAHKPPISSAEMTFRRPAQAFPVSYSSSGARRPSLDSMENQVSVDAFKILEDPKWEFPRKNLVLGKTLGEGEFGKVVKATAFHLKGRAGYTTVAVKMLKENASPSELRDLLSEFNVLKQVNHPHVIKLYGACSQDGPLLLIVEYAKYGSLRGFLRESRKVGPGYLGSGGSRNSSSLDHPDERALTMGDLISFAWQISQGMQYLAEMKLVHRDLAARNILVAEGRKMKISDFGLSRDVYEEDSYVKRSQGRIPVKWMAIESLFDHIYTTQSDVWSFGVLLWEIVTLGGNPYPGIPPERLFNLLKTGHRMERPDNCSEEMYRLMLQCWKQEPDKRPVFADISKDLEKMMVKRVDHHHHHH

B-Raf V600E = biological target: T2, B-Raf V600E (Homo sapiens, UniProt P15056, V600E); experiment: AlphaScreen kinase assay, B-Raf V600E; conditions: read-out: IC50, activity toward kinase B-Raf V600E
T2 construct: P4254. pFastBacBD-CDC37 BRAF D437-K722-X, V600E; His6 with pFastBac HT leader (TEV site) (N); made in house; host or cells: Sf9 (baculovirus; chaperone CDC37 co-expressed)
T2 sequence (P15056 with tags, fused parts or gaps V600E): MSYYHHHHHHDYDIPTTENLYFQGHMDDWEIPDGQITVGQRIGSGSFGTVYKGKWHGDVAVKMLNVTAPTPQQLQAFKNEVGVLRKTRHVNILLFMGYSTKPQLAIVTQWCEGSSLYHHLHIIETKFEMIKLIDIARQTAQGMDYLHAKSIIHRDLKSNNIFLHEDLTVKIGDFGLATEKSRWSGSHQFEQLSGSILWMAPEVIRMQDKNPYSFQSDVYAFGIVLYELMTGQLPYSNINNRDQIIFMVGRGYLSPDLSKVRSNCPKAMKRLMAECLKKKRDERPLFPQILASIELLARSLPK

Kdr = biological target: T3, Kdr (Homo sapiens, UniProt P35968); experiment: Z'-Lyte FRET kinase assay (Invitrogen), Kdr; conditions: read-out: IC50, activity toward kinase Kdr
T3 construct: purchased Invitrogen (assay run by Invitrogen)
T3 sequence (P35968 20-1356): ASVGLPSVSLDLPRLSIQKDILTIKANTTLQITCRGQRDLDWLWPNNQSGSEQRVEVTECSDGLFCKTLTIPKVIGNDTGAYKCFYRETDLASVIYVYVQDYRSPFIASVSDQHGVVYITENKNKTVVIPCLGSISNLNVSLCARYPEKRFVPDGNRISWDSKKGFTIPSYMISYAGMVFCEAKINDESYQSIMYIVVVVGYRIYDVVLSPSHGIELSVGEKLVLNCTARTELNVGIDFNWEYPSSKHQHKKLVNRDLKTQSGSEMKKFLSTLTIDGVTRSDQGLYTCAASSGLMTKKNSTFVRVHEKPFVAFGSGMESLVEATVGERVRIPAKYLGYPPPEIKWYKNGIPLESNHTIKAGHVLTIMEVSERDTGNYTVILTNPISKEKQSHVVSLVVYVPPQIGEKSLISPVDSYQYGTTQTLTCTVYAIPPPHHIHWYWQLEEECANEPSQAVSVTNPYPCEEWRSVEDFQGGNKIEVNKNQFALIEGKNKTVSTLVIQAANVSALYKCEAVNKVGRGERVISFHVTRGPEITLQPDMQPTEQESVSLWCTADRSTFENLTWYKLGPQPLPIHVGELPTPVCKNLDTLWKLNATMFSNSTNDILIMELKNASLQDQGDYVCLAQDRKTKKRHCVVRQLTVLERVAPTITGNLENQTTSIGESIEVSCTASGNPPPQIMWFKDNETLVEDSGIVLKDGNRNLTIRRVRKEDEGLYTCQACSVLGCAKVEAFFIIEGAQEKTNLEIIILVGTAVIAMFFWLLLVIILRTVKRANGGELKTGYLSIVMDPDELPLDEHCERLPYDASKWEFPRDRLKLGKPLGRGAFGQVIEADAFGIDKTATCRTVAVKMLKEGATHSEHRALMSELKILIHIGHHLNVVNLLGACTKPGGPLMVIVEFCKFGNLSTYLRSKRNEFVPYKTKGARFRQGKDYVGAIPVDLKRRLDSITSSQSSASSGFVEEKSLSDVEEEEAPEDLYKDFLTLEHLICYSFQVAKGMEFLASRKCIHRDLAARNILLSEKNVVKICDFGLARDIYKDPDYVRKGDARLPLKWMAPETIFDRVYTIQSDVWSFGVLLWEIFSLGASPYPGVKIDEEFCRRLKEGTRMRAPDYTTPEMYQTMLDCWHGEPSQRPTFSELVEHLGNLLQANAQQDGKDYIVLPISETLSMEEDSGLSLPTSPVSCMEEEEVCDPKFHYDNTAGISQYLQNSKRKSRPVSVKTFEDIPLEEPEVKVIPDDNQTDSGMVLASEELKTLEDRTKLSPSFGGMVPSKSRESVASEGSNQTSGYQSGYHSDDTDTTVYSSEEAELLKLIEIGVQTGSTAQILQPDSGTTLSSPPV

Stk6 = biological target: T4, Stk6 (Homo sapiens, UniProt O14965); experiment: Z'-Lyte FRET kinase assay (Invitrogen), Stk6; conditions: read-out: IC50, activity toward kinase Stk6
T4 construct: purchased Invitrogen (Carlsbad, Calif.), screening service
T4 sequence (O14965 1-403): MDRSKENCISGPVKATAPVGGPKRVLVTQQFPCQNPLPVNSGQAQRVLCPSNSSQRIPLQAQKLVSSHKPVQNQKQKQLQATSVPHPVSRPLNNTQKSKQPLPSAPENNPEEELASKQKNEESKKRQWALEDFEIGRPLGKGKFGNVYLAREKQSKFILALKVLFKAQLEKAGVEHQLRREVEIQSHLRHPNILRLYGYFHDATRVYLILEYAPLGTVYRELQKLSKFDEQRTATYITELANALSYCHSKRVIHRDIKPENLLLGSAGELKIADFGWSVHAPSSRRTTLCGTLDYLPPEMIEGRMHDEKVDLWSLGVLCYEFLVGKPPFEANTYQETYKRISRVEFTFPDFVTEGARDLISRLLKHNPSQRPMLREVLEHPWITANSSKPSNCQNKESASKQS

Jnk3 = biological target: T5, Jnk3 (Homo sapiens, UniProt P53779); experiment: AlphaScreen kinase assay, Jnk3; conditions: read-out: IC50, activity toward kinase Jnk3
T5 construct: purchased Upstate Biotechnology
T5 sequence (P53779 whole entry): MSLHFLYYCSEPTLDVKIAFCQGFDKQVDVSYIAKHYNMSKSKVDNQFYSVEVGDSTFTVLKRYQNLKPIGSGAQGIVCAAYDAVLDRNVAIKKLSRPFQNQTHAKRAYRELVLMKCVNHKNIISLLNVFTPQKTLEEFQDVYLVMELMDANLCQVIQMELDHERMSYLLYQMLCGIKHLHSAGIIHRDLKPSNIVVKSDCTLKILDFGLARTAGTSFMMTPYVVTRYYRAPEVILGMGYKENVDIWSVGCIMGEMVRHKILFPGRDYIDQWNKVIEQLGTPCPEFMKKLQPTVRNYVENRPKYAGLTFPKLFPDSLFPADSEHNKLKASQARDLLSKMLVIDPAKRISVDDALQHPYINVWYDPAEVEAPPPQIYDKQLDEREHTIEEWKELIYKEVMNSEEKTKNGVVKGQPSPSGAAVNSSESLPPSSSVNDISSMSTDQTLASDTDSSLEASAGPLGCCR

Kit = biological target: T6, Kit (Homo sapiens, UniProt P10721); experiment: AlphaScreen kinase assay, Kit; conditions: read-out: IC50, activity toward kinase Kit
T6 construct: P1332.N6 BI PTP KIT M552-K948-X COD; His6 (N); made in house; host or cells: E. coli (PTP1B co-expressed)
T6 sequence (P10721 with tags, fused parts or gaps): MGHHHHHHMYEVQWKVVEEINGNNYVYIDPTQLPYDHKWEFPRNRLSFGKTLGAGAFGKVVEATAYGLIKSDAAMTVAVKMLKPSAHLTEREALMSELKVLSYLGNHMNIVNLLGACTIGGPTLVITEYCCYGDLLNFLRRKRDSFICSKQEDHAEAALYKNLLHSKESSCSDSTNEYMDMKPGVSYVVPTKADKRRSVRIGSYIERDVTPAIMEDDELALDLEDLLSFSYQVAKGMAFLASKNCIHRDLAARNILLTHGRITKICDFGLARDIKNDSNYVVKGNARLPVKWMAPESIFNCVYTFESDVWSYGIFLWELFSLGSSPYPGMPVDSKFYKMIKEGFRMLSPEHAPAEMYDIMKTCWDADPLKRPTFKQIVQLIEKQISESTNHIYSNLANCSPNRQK

FGFR1 = biological target: T7, FGFR1 (Homo sapiens, UniProt P11362, C488A/C584S); experiment: AlphaScreen kinase assay, FGFR1; conditions: read-out: IC50, activity toward kinase FGFR
T7 construct: P1351.pET N6 BI-PTP FGFR A458-E765-X C488A, C584S; made in house; host or cells: E. coli (PTP1B co-expressed)
T7 sequence (P11362 458-765 C488A/C584S): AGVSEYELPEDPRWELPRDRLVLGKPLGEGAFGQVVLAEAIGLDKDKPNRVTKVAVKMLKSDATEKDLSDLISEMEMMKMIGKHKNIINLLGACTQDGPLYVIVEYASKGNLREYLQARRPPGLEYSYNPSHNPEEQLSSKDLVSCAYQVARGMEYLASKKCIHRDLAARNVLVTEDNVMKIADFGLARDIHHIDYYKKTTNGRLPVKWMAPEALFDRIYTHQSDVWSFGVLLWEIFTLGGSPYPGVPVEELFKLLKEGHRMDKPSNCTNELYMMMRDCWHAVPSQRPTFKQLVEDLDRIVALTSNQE

Fms = biological target: T8, Fms (Homo sapiens, UniProt P07333); experiment: AlphaScreen kinase assay, Fms; conditions: read-out: IC50, activity toward kinase Fms
T8 construct: purchased Upstate Biotechnology
T8 sequence (P07333 20-972): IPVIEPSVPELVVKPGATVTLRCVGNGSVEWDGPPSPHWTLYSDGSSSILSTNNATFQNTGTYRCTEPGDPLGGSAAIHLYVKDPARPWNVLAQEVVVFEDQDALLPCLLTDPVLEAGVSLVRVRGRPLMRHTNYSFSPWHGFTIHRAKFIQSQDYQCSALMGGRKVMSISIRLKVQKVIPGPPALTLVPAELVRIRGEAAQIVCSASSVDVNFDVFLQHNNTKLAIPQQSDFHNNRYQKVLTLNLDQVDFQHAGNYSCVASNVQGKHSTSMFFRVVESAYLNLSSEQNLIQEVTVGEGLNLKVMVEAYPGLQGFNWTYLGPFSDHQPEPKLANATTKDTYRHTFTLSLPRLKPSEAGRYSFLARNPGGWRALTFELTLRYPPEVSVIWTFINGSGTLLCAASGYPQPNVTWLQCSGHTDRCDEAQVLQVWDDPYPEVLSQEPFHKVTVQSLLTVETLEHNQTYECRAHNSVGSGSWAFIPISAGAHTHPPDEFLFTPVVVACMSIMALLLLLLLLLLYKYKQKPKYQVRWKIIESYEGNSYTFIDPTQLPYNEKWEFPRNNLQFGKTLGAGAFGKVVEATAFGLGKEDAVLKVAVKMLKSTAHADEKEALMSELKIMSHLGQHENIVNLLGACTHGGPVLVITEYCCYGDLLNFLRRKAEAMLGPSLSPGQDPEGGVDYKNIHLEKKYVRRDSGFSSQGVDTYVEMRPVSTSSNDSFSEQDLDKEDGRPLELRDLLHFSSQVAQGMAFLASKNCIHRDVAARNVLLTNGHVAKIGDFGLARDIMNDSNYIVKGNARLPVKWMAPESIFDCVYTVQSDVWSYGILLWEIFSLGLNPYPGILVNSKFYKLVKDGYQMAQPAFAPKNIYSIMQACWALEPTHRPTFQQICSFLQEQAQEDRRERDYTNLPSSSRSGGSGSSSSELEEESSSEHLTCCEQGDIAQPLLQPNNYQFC

B-Raf = biological target: T9, B-Raf (Homo sapiens, UniProt P15056); experiment: AlphaScreen kinase assay, B-Raf; conditions: read-out: IC50, activity toward kinase B-Raf
T9 construct: purchased Upstate Biotechnology
T9 sequence (P15056 whole entry): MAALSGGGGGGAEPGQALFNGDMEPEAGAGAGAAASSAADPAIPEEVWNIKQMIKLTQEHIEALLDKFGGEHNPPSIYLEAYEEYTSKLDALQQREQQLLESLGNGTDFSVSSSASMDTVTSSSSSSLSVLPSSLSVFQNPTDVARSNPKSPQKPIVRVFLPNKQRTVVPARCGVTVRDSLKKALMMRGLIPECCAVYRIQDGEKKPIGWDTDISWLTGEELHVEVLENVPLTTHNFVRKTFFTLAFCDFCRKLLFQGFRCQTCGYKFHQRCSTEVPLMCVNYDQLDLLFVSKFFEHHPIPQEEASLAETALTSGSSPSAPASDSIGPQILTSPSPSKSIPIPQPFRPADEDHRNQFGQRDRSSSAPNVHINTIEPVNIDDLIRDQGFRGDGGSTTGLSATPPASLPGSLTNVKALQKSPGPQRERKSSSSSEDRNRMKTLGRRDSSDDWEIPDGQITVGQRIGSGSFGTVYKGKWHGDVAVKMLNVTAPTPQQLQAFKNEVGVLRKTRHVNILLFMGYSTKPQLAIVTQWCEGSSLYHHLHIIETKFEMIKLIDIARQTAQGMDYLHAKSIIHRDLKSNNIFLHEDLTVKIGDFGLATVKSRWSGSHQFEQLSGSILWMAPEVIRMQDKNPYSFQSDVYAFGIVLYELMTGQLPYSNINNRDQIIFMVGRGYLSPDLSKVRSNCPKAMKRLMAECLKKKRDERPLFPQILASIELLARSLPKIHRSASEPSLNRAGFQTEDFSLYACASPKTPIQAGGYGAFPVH

Measured: IC50

OCc1cccc(-c2ccnc3[nH]cc(Sc4cccs4)c23)c1 [Compound P-0071]
≤ 10 µM: Ret | B-Raf V600E | Kdr | Stk6

OC(c1ccc(NCc2ccc(Cl)cc2)nc1)c1c[nH]c2ncccc12 (stereo not drawn) [Compound P-0261]
≤ 10 µM: B-Raf V600E | Kdr | Stk6

CC(=O)c1cccc(-c2cnc3[nH]ccc3c2)c1 [Compound P-0080]
≤ 10 µM: Stk6 | Jnk3

c1ccc(-c2cnc3[nH]ccc3c2)cc1 [Compound P-0279]
≤ 10 µM: Kit | Kdr | Stk6 | Jnk3

Cn1cccc1C(=O)c1c[nH]c2ncccc12 [Compound P-0147]
≤ 10 µM: B-Raf V600E | Kdr | Stk6

COc1ccc(-c2c(CSCC(C)C)[nH]c3ncccc23)cc1 [Compound P-0313]
≤ 10 µM: Stk6 | Jnk3

Fc1ccc(-c2c(CSCc3ccco3)[nH]c3ncccc23)cc1 [Compound P-0064]
≤ 10 µM: Ret | Kit | Kdr | Stk6

CC(=O)c1cccc(-c2ccnc3[nH]cc(Sc4cccs4)c23)c1 [Compound P-0092]
≤ 10 µM: B-Raf V600E | Kdr | Stk6

c1coc(-c2nc(-c3ccnc4[nH]ccc34)no2)c1 [Compound P-0319]
≤ 10 µM: Kdr | Stk6

O=C(c1ccc(Nc2cccc(O)c2)nc1)c1c[nH]c2ncccc12 [Compound P-0189]
≤ 10 µM: Kdr | FGFR1 | Stk6 | Fms | Jnk3

O=C(O)/C=C/c1cccc(-c2ccnc3[nH]cc(C(=O)c4cccc(Cl)c4Cl)c23)c1 [Compound P-0110]
≤ 10 µM: Ret | B-Raf V600E | Kdr | Stk6

O=C(O)/C=C/c1cccc(-c2ccnc3[nH]cc(C(=O)c4ccc(Cl)cc4)c23)c1 [Compound P-0100]
≤ 10 µM: Ret | B-Raf V600E | Kdr | Stk6

Cc1ccc(-c2ccnc3[nH]cc(Sc4cccs4)c23)cc1[N+](=O)[O-] [Compound P-0199]
≤ 10 µM: B-Raf V600E | Kdr | Stk6

COC(c1c(F)ccc(N(Cc2ccccc2)Cc2ccccc2)c1F)c1c[nH]c2ncc(-c3cccnc3)cc12 (stereo not drawn) [Compound P-0143]
≤ 10 µM: Kdr | Stk6 | B-Raf

O=C(c1ccc(Oc2cc(Cl)cc(Cl)c2)o1)c1c[nH]c2ncccc12 [Compound P-0295]
≤ 10 µM: B-Raf V600E | Kdr | Stk6

c1cnc2[nH]cc(-c3ccoc3)c2c1 [Compound P-0260]
≤ 10 µM: Kdr | Stk6

Fc1cccc(-c2ccnc3[nH]ccc23)c1 [Compound P-0225]
≤ 10 µM: Kdr | Stk6

c1ccc(COc2cccc(Cc3c[nH]c4ncc(-c5ccsc5)cc34)c2)cc1 [Compound P-0132]
≤ 10 µM: Kit | FGFR1 | Stk6 | Jnk3
